Experimental data from patent US8349827B2, “Substituted dipyrido-pyrimido-diazepine and benzo-pyrido-pyrimido compounds” (ArQule, Inc., priority 2009, dated 2013).

Legend:
DLD-1 = experiment: MTS assay, DLD-1 cells; assay type: cell-based; details: Homo sapiens, 72 hours
Procedure: (§1) Cells were maintained at 37° C., 5% CO2 in DMEM media supplemented with 1% fetal bovine serum, penicillin/streptomycin and fungizone (Invitrogen). Cells were seeded into 96-well tissue culture plates at 3000 per well and cultured at 37° C. for 18 hours. Test compounds were dissolved and diluted to 300× in DMSO then diluted 1:40 in DMEM. Cells were incubated with test compounds for 72 hours followed by incubation with tetrazolium compound (3-(4,5-dimethylthiazol-2-yl)-5-(3-carboxymethoxyphenyl)-2-(4-sulfophenyl)-2H-tetrazolium, inner salt; MTS) and the electron coupling reagent, phenazine methosulfate (PMS) for 4 hours. […] The ability of compounds to inhibit cell growth in this assay is correlated with the reduction of dehydrogenase enzyme activity found in metabolically active cells. The measurement of the absorbance of the formazan was assessed using an ENVISION™ (Perkin Elmer) microplate reader at 492 nm. The calculated IC50 value is the concentration of the test compound that causes a 50% decrease in the absorbance.

KATO III = experiment: MTS assay, KATO III cells; assay type: cell-based; details: Homo sapiens, 72 hours
Procedure: as §1

MDA-MB-231 = experiment: MTS assay, MDA-MB-231 cells; assay type: cell-based; details: Homo sapiens, 72 hours
Procedure: as §1

NCI-H1299 = experiment: MTS assay, NCI-H1299 cells; assay type: cell-based; details: Homo sapiens, 72 hours
Procedure: as §1

PACA-2 = experiment: MTS assay, PACA-2 cells; assay type: cell-based; details: 72 hours
Procedure: as §1

PC-3 = experiment: MTS assay, PC-3 cells; assay type: cell-based; details: Homo sapiens, 72 hours
Procedure: as §1

ABL T315I = ABL T315I (Homo sapiens, UniProt P00519, T315I); experiment: ABL Kinase Activity Assay (Elisa), ABL T315I; assay type: biochemical; details: ATP 100 μM, read-out: Abl(T315I) Enzymetic assay (Elisa) % inhibition
Procedure: (§2) ABL Kinase Activity Assay
(§3) The disclosed compounds were assayed for their ability to inhibit the activity of ABL kinase. Nunc Maxisorb plates were coated with streptavidin by overnight incubation with 100 μL per well of 1 μg/ml streptavidin in DPBS. Prior to the experiment, the plates were washed with TBST (3×200 μL) and blocked for at least 3 hours by adding 150 μL of 5% BSA/TBST. The plates were washed with TBST (3×200 μL/well) and left dry immediately before the capture step.
(§4) The disclosed test compounds and controls (Gleevec) were prepared using the following assay buffer@10× desired final concentration (50 mM Tris pH 7.0, 0.02 mg/ml BSA, 10 mM MgCl2, 0.1 mM Na3VO4, 1 mM EGTA, 0.01% NP-40, 1 mM DTT in 10% glycerol/water). In a reaction plate, 5 μl test article (or control) and 30 μl ABL or ABL T315I (0.089 nM final concentration, in the above buffer) were added rapidly. The plate was incubated for 20 minutes. To the reaction plate was added ATP (100 μM final concentration) and AblTide (128 nM final concentration) in a volume of 15 μl. The plate was incubated at room temperature for one hour.
(§5) From the reaction plate, 40 μl was transferred to the streptavidin coated plate. The capture plate was incubated at room temperature for 30 minutes, then washed 3× with TBST. To the capture plate was added 100 μL/well of cell signaling anti-phospho tyrosine at a dilution of 1:3000 in 2% BSA/TBST. The plate was incubated for two hours at room temperature then washed 3× with TBST. To the capture plate was added 100 μL/well of alkaline phosphatase tagged goat anti mouse antibody at a dilution of 1:4000 in 2% BSA/TBST. The plate was incubated for one hour at room temperature then washed 3× with TBST.
(§6) The fluorescent readout was initiated by the addition of 100 μl/well of Attophos reagent (6 mg/10 mL). The reading was done on the Perkin Elmer Envision system.

ABL = ABL (Homo sapiens, UniProt P00519); experiment: ABL Kinase Activity Assay (Elisa), ABL; assay type: biochemical; details: ATP 100 μM, read-out: Abl Enzymetic assay (Elisa) % inhibition
Procedure: as §2, §3, §4, §5, §6

inhibition at 10 µM (ABL T315I) [%] | inhibition at 10 µM (ABL) [%] | SMILES | inhibition at 10 µM (DLD-1) [%] | inhibition at 10 µM (KATO III) [%] | inhibition at 10 µM (MDA-MB-231) [%] | inhibition at 10 µM (NCI-H1299) [%] | inhibition at 10 µM (PACA-2) [%] | inhibition at 10 µM (PC-3) [%]
80 to 100 | 50 to 79 | FC(F)(F)c1ccccc1CNc1ncc2c(n1)-c1cccnc1Nc1cnccc1-2 [Example 3, N-[2-(trifluoromethyl)benzyl]-9H-dipyrido[2,3-b:4′,3′-f]pyrimido[4,5-d]azepin-2-amine] | < 50 | < 50 | < 50 | 50 to 79 | < 50 | < 50
80 to 100 | 50 to 79 | O=C1CCCN1CCCNc1ncc2c(n1)-c1cccnc1Nc1cnccc1-2 [Example 4, 1-[3-(9H-dipyrido[2,3-b:4′,3′-f]pyrimido[4,5-d]azepin-2-ylamino)propyl]pyrrolidin-2-one] | < 50 | < 50 | < 50 | < 50 | – | < 50
80 to 100 | 80 to 100 | Fc1ccc(CNc2ncc3c(n2)-c2cccnc2Nc2cnccc2-3)c(Cl)c1 [Example 10, N-(2-chloro-4-fluorobenzyl)-9H-dipyrido[2,3-b:4′,3′-f]pyrimido[4,5-d]azepin-2-amine] | – | – | < 50 | < 50 | – | < 50
80 to 100 | 80 to 100 | CC(CO)Nc1ncc2c(n1)-c1cccnc1Nc1cnccc1-2 (centres unmarked) [Example 17, 2-(9H-dipyrido[2,3-b:4′,3′-f]pyrimido[4,5-d]azepin-2-ylamino)propan-1-ol] | – | < 50 | – | – | – | < 50
80 to 100 | 80 to 100 | CCC(CC)Nc1ncc2c(n1)-c1cccnc1Nc1cnccc1-2 [Example 18, N-(1-ethylpropyl)-9H-dipyrido[2,3-b:4′,3′-f]pyrimido[4,5-d]azepin-2-amine] | < 50 | 50 to 79 | < 50 | < 50 | – | < 50
< 50 | 50 to 79 | COc1cc(CCNc2ncc3c(n2)-c2cccnc2Nc2cnccc2-3)cc(OC)c1 [Example 38, N-[2-(3,5-dimethoxyphenyl)ethyl]-9H-dipyrido[2,3-b:4′,3′-f]pyrimido[4,5-d]azepin-2-amine] | < 50 | < 50 | – | – | < 50 | < 50
80 to 100 | 80 to 100 | c1ccc(-c2cccc(CNc3ncc4c(n3)-c3cccnc3Nc3cnccc3-4)c2)cc1 [Example 45, N-(biphenyl-3-ylmethyl)-9H-dipyrido[2,3-b:4′,3′-f]pyrimido[4,5-d]azepin-2-amine] | 80 to 100 | 80 to 100 | – | 50 to 79 | 80 to 100 | < 50
80 to 100 | 80 to 100 | Brc1ccc(CCNc2ncc3c(n2)-c2cccnc2Nc2cnccc2-3)cc1 [Example 46, N-[2-(4-bromophenyl)ethyl]-9H-dipyrido[2,3-b:4′,3′-f]pyrimido[4,5-d]azepin-2-amine] | 50 to 79 | 50 to 79 | – | < 50 | < 50 | < 50
80 to 100 | 80 to 100 | CN(C)CCCCCNc1ncc2c(n1)-c1cccnc1Nc1cnccc1-2 [Example 48, N′-9H-dipyrido[2,3-b:4′,3′-f]pyrimido[4,5-d]azepin-2-yl-N,N-dimethylpentane-1,5-diamine] | < 50 | < 50 | 50 to 79 | – | < 50 | 50 to 79
– | – | c1ccc(CNc2ncc3c(n2)-c2cccnc2Nc2cnccc2-3)nc1 [Example 49, N-(pyridin-2-ylmethyl)-9H-dipyrido[2,3-b:4′,3′-f]pyrimido[4,5-d]azepin-2-amine] | 80 to 100 | 80 to 100 | 80 to 100 | 80 to 100 | 80 to 100 | 80 to 100
< 50 | 50 to 79 | CN(C)CCCNc1ncc2c(n1)-c1cccnc1Nc1cnccc1-2 [Example 50, N′-9H-dipyrido[2,3-b:4′,3′-f]pyrimido[4,5-d]azepin-2-yl-N,N-dimethylpropane-1,3-diamine] | – | < 50 | – | – | < 50 | < 50
– | – | CC(=O)N1CCN(c2ncc3c(n2)-c2cccnc2Nc2cnccc2-3)CC1 [Example 57, 2-(4-acetylpiperazin-1-yl)-9H-dipyrido[2,3-b:4′,3′-f]pyrimido[4,5-d]azepine] | 80 to 100 | 80 to 100 | 80 to 100 | 80 to 100 | 80 to 100 | 80 to 100
– | – | CC(C)(C)C(=O)N1CCN(c2ncc3c(n2)-c2cccnc2Nc2cnccc2-3)CC1 [Example 58, 2-[4-(2,2-dimethylpropanoyl)piperazin-1-yl]-9H-dipyrido[2,3-b:4′,3′-f]pyrimido[4,5-d]azepine] | 80 to 100 | 50 to 79 | < 50 | – | 80 to 100 | 50 to 79
80 to 100 | 80 to 100 | c1cnc2c(c1)-c1nc(NC3CCNCC3)ncc1-c1ccncc1N2 [Example 59, N-piperidin-4-yl-9H-dipyrido[2,3-b:4′,3′-f]pyrimido[4,5-d]azepin-2-amine] | – | 80 to 100 | 80 to 100 | – | – | 80 to 100
50 to 79 | 50 to 79 | Nc1ncc2c(n1)-c1cccnc1Nc1ccccc1-2 [Example 62, 9H-pyrido[2,3-b]pyrimido[4,5-d][1]benzazepin-2-amine] | – | < 50 | < 50 | – | < 50 | < 50
< 50 | 50 to 79 | Fc1ccc(CNc2ncc3c(n2)-c2cccnc2Nc2ccccc2-3)c(F)c1 [Example 64, N-(2,4-difluorobenzyl)-9H-pyrido[2,3-b]pyrimido[4,5-d][1]benzazepin-2-amine] | < 50 | < 50 | < 50 | < 50 | – | < 50
– | – | CC(=O)N1CCN(c2ncc3c(n2)-c2cccnc2Nc2ccccc2-3)CC1 [Example 68, 2-(4-acetylpiperazin-1-yl)-9H-pyrido[2 ,3-b]pyrimido[4,5-d][1]benzazepine] | 80 to 100 | 80 to 100 | 80 to 100 | 50 to 79 | 80 to 100 | 80 to 100
– | – | Fc1ccc(CNc2ncc3c(n2)-c2ccccc2Nc2cnccc2-3)c(F)c1 [Example 69, N-(2,4-difluorobenzyl)-9H-pyrido[3,4-b]pyrimido[5,4-d][1]benzazepin-2-amine] | 80 to 100 | 80 to 100 | 80 to 100 | 80 to 100 | 80 to 100 | 80 to 100
– | – | Clc1cccc(CNc2ncc3c(n2)-c2ccccc2Nc2cnccc2-3)c1 [Example 70, N-(3-chlorobenzyl)-9H-pyrido[3,4-b]pyrimido[5,4-d][1]benzazepin-2-amine] | 80 to 100 | 80 to 100 | 80 to 100 | 80 to 100 | 80 to 100 | 80 to 100
